How the values were obtained:
Kato III = test: CellTiterblue viability, 72 hr, Kato III; assay type: cell-based; conditions: Homo sapiens, Kato III cells
Description: (§1) A number of studies were performed to analyze the consequences of tyrosine kinase inhibition in cell lines. To do this, 1000 cells are seeded in 27 μl/well in 384-well microplates, which are then placed in a humidified CO2 incubator at 37° C. overnight. The next day, 3 μl/well of 10× concentrated drug is added and the plates are returned to the incubator for 72 hr. After 72 hr incubation, plates are removed and […] CellTiterblue (Promega) viability reagent is added. Plates are returned to the incubator for 3 hr, after which it is fluorescence measurements are read on the Victor X3 plate reader (Perkin Elmer). Data are analyzed using Excel (Microsoft), and GI50 values are determined using Prism (Graphpad).

FGFR1 kinase = target: T1, FGFR1 kinase (Homo sapiens, UniProt P11362); test: KinaseProfiler kinase inhibition assay, FGFR1; assay type: biochemical; conditions: 1 μM compound
T1 construct: purchased Millipore (KinaseProfiler Service)

KDR kinase = target: T2, KDR kinase (Homo sapiens, UniProt P35968); test: KinaseProfiler kinase inhibition assay, KDR; assay type: biochemical; conditions: 1 μM compound
T2 construct: purchased Millipore (KinaseProfiler Service)

RT112 = test: CellTiterblue viability, 72 hr, RT112; assay type: cell-based; conditions: Homo sapiens, RT-112, RT112 cells
Description: as §1

Alk kinase = target: T3, Alk kinase (Homo sapiens, UniProt Q9UM73); test: KinaseProfiler kinase inhibition assay, Alk; assay type: biochemical; conditions: 1 μM compound
T3 construct: purchased Millipore (KinaseProfiler Service)

Tie2 = target: T4, Tie2 (Homo sapiens, UniProt Q02763); test: KinaseProfiler kinase inhibition assay, Tie2; assay type: biochemical; conditions: 1 μM compound
T4 construct: purchased Millipore (KinaseProfiler Service)

KG1a = test: CellTiterblue viability, 72 hr, KG1a; assay type: cell-based; conditions: Homo sapiens, KG-1a, KG1a cells
Description: as §1

MDA-MB134 = test: CellTiterblue viability, 72 hr, MDA-MB134; assay type: cell-based; conditions: MDA-MB134 cells
Description: as §1

phospho-FGFR2 = target: T5, phospho-FGFR2 (Homo sapiens, UniProt P21802); test: phospho-FGFR ELISA on Kato III cells; assay type: cell-based; conditions: read-out: EC50 (nM) P-FGFR2, Kato III cells
T5 construct: endogenous in cells; host or cells: Kato III cells
Description: For the phospho-FGFR, the following assay Protocol was used. 25,000 cells are seeded in 90 μl/well in 96-well microplates, which are then placed in a humidified CO2 incubator at 37° C. overnight. 96-well ELISA plates (Mesoscale Discovery) are coated with capture antibody (R&D Systems Duo-Set) at 4 μg/ml, 30 μl/well. The next day, 10 μl/well of 10× concentrated drug is added and the plates are returned to the incubator for […]. ELISA plates are washed using an automated plate washer (BioTek Instruments). After 30 min, cells are inverted and gently tapped to remove excess medium, and immediately placed on ice. 30 μl mPer cell lysis reagent (Thermo Scientific) with protease and phosphatase inhibitors is added/well. After 15 min on ice, lysates are mixed and 30 μl transferred to the ELISA plate. Plates are incubated for 2 hr, washed, and 30 μl/well detection antibody is added. After 1 hr, plates are washed and 30 μl “SulfoTag” (MesoScale Discovery) detection reagent is added. After 1 hr, plates are washed and 150 μl/well read solution is added. Electrochemiluminescence is determined on the Mesoscale Discovery Sector Imager 2000. Data are analyzed using Excel (Microsoft), and EC50 values are determined using Prism (Graphpad).

Ret kinase = target: T6, Ret kinase (Homo sapiens, UniProt P07949); test: KinaseProfiler kinase inhibition assay, Ret; assay type: biochemical; conditions: 1 μM compound
T6 construct: purchased Millipore (KinaseProfiler Service)

AN3_CA = test: CellTiterblue viability, 72 hr, AN3_CA; assay type: cell-based; conditions: Homo sapiens, AN3-CA, AN3_CA cells
Description: as §1

Abl kinase = target: T7, Abl kinase (Homo sapiens, UniProt P00519); test: KinaseProfiler kinase inhibition assay, Abl; assay type: biochemical; conditions: 1 μM compound
T7 construct: purchased Millipore (KinaseProfiler Service)

c-Src kinase = target: T8, c-Src kinase (Homo sapiens, UniProt P12931); test: KinaseProfiler kinase inhibition assay, c-Src; assay type: biochemical; conditions: 1 μM compound; read-out: % Inhibition @1 μM cSrc
T8 construct: purchased Millipore (KinaseProfiler Service)

T6 sequence (P07949 29-1114): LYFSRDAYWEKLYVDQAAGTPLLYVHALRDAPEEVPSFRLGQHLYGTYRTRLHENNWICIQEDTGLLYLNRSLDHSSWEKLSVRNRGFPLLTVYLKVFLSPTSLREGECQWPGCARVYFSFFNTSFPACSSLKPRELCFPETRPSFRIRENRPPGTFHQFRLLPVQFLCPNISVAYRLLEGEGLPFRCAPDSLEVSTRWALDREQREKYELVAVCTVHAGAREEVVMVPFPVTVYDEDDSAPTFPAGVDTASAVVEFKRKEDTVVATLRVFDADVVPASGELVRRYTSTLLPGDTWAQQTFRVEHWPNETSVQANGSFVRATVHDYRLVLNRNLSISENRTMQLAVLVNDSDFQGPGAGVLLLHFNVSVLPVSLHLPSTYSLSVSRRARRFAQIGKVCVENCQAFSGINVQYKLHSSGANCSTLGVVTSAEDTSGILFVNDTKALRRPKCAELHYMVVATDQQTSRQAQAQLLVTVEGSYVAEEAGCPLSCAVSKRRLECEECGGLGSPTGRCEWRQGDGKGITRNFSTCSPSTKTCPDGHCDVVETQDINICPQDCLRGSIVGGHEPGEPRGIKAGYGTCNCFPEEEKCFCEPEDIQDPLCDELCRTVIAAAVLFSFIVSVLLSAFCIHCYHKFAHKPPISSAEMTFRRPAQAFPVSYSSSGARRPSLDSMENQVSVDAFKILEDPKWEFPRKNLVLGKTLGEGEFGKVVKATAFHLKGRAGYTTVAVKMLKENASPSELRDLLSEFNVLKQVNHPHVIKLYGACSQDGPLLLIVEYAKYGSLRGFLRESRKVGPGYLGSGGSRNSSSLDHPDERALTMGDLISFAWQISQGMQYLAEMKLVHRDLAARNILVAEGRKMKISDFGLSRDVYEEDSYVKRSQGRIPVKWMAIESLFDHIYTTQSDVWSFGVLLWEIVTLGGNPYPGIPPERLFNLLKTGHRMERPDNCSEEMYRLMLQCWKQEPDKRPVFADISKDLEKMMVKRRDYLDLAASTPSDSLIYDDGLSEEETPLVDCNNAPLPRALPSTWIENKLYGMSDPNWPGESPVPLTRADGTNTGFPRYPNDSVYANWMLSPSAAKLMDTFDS
T1 sequence (P11362 22-822): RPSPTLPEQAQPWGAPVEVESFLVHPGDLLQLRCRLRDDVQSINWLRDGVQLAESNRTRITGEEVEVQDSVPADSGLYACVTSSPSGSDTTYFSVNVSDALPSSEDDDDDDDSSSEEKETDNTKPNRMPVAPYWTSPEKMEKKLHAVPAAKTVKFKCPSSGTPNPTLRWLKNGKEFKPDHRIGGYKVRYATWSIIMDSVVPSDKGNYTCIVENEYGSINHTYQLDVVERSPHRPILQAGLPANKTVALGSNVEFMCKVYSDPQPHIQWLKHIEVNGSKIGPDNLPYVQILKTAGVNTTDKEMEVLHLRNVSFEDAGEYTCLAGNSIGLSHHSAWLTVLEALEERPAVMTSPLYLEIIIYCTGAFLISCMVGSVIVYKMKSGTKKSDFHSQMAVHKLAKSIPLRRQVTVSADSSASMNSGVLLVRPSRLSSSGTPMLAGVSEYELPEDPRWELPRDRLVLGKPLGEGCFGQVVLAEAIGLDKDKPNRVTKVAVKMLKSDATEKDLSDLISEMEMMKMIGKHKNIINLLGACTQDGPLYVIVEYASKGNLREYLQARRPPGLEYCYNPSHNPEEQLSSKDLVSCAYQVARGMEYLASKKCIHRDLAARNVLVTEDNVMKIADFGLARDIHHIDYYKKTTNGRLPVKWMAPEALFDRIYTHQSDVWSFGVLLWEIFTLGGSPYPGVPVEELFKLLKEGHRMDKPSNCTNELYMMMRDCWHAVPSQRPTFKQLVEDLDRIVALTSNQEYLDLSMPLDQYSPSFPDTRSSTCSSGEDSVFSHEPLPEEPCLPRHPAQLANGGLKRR
T5 sequence (P21802 22-766 isoform P21802-8 limits assumed): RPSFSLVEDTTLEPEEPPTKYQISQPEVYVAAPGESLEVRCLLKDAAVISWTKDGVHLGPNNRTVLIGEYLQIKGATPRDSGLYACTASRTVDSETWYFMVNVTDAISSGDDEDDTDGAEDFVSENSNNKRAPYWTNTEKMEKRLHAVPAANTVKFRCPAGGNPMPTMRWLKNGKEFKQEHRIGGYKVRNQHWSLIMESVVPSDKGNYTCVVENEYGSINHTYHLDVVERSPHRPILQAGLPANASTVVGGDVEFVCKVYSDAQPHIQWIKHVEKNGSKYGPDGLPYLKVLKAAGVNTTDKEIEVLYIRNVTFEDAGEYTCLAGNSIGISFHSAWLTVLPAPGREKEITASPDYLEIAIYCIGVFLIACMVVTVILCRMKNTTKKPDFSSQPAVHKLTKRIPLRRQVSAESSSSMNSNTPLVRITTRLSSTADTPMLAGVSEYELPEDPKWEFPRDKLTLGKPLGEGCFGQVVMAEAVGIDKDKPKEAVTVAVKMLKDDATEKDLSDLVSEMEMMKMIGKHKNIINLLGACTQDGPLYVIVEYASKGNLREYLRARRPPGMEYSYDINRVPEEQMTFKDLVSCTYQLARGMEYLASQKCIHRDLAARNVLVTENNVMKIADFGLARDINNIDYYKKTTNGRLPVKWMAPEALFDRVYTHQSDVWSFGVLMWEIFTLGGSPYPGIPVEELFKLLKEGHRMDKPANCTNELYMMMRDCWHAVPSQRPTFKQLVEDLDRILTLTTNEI
T2 sequence (P35968 20-1356): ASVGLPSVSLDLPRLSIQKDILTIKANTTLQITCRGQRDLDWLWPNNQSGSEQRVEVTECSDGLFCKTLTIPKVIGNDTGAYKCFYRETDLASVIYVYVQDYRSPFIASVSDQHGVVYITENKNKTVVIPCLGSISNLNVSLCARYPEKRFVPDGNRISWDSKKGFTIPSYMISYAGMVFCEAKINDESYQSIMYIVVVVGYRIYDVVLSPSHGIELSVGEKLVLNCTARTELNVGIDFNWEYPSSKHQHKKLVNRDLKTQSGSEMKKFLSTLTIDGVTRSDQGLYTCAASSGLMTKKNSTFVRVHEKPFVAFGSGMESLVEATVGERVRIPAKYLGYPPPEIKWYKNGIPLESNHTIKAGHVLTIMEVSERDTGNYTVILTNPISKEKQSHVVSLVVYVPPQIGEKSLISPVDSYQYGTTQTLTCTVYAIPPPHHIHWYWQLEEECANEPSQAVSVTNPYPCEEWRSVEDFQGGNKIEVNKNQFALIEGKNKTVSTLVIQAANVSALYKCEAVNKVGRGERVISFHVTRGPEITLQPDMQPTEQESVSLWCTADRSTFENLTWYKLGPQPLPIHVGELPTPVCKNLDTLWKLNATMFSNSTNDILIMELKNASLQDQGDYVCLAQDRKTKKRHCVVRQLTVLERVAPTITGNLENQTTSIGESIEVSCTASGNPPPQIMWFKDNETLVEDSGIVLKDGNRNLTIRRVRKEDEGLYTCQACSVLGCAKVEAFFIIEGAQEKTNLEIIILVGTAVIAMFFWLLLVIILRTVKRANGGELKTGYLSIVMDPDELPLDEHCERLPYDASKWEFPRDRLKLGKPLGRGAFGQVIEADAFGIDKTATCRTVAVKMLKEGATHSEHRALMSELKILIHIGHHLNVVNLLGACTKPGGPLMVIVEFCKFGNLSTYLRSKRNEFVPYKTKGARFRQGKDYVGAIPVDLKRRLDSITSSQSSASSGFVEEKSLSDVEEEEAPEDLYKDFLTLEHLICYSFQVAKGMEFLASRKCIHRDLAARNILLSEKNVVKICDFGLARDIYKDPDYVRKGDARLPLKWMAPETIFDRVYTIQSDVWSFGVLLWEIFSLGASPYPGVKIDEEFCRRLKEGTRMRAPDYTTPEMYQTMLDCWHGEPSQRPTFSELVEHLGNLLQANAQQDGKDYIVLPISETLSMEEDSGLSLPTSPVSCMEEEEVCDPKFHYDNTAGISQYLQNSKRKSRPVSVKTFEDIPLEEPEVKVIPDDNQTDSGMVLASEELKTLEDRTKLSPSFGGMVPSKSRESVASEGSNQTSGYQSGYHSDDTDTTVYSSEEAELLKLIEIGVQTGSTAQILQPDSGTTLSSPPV
T4 sequence (Q02763 23-1124): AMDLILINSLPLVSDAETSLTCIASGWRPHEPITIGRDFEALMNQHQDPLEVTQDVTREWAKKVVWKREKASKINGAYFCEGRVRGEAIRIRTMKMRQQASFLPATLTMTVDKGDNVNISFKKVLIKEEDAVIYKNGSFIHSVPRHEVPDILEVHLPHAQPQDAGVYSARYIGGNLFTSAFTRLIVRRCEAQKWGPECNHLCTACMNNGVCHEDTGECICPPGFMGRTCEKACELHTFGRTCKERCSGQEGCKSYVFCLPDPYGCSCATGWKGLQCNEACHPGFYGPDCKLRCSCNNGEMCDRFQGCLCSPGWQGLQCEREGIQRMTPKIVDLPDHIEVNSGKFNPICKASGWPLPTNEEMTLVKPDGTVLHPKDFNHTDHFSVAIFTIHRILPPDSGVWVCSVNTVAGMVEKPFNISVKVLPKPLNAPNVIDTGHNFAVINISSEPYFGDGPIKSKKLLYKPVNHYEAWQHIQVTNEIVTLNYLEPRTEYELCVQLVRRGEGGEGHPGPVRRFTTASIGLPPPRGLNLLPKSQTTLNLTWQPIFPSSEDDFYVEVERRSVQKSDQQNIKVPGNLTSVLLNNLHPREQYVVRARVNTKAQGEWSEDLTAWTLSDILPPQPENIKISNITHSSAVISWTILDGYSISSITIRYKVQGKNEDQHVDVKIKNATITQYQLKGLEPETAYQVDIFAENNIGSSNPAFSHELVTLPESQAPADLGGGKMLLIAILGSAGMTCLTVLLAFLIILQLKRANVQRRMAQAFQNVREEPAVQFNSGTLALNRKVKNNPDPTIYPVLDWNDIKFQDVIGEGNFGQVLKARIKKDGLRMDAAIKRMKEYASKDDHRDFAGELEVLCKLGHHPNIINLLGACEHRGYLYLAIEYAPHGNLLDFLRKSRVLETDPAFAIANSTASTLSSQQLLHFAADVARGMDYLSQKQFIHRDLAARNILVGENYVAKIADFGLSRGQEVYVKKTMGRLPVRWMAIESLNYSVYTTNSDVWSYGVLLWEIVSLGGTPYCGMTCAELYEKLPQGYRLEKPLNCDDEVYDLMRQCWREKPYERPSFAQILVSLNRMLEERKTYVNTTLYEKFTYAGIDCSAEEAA

## Cc1cc2c(F)c(Oc3ncnc(Nc4cc(C5CC5)n[nH]4)c3F)ccc2[nH]1 [Compound 32, N-(3-cyclopropyl-1H-pyrazol-5-yl)-5-fluoro-6-((4-fluoro-2-methyl-1H-indol-5-yl)oxy) pyrimidin-4-amine]
Kato III
  GI50: > 500 nM
FGFR1 kinase
  inhibition at 1 µM: 40%
KDR kinase
  inhibition at 1 µM: 54%
RT112
  GI50: > 500 nM
Alk kinase
  inhibition at 1 µM: -21%
Tie2
  inhibition at 1 µM: -9%
KG1a
  GI50: > 500 nM
MDA-MB134
  GI50: 138 nM
phospho-FGFR2
  EC50: > 500 nM
Ret kinase
  inhibition at 1 µM: -33%
AN3_CA
  GI50: > 500 nM
Abl kinase
  inhibition at 1 µM: 0%
c-Src kinase
  inhibition at 1 µM: -7%

## CCN1CCN(c2ccc(Nc3cc(Oc4cc(F)c5[nH]c(C)cc5c4F)ncn3)cc2)CC1 [Compound 49]
Kato III
  GI50: 207 nM
FGFR1 kinase
  inhibition at 1 µM: 99%
KDR kinase
  inhibition at 1 µM: 96%
RT112
  GI50: > 500 nM
Alk kinase
  inhibition at 1 µM: 69%
Tie2
  inhibition at 1 µM: 69%
KG1a
  GI50: 60 nM
MDA-MB134
  GI50: 56 nM
phospho-FGFR2
  EC50: 75 nM
Ret kinase
  inhibition at 1 µM: 53%
AN3_CA
  GI50: > 500 nM
Abl kinase
  inhibition at 1 µM: 68%
c-Src kinase
  inhibition at 1 µM: 74%

## CCN1CCN(c2ccc(Nc3ncnc(Oc4ccc5[nH]c(C)cc5c4F)c3C#N)cc2)CC1 [Compound 53]
Kato III
  GI50: 34 nM
FGFR1 kinase
  inhibition at 1 µM: 100%
KDR kinase
  inhibition at 1 µM: 98%
RT112
  GI50: > 500 nM
Alk kinase
  inhibition at 1 µM: 49%
Tie2
  inhibition at 1 µM: 5%
KG1a
  GI50: 10 nM
MDA-MB134
  GI50: 5 nM
phospho-FGFR2
  EC50: 18 nM
Ret kinase
  inhibition at 1 µM: -25%
AN3_CA
  GI50: > 500 nM
Abl kinase
  inhibition at 1 µM: 11%
c-Src kinase
  inhibition at 1 µM: 10%

## Cc1cc2c(F)c(Oc3cc(N4CCN(c5ccc(N)cc5F)CC4)ncn3)ccc2[nH]1 [Example 10]
Kato III
  GI50: 142 nM
FGFR1 kinase
  inhibition at 1 µM: -4%
KDR kinase
  inhibition at 1 µM: 20%
RT112
  GI50: > 100 nM
Alk kinase
  inhibition at 1 µM: 40%
Tie2
  inhibition at 1 µM: -12%
KG1a
  GI50: > 100 nM
phospho-FGFR2
  EC50: > 100 nM
Ret kinase
  inhibition at 1 µM: -19%
AN3_CA
  GI50: 33 nM
Abl kinase
  inhibition at 1 µM: 13%
c-Src kinase
  inhibition at 1 µM: 8%

## Cc1cc2c(F)c(Oc3cc(Nc4ccc(N5CCNCC5)cc4)ncn3)ccc2[nH]1 [Example 11]
Kato III
  GI50: > 500 nM
FGFR1 kinase
  inhibition at 1 µM: 99%
KDR kinase
  inhibition at 1 µM: 96%
RT112
  GI50: > 100 nM
Alk kinase
  inhibition at 1 µM: 70%
Tie2
  inhibition at 1 µM: 92%
KG1a
  GI50: > 100 nM
phospho-FGFR2
  EC50: 96 nM
Ret kinase
  inhibition at 1 µM: 67%
AN3_CA
  GI50: > 500 nM
Abl kinase
  inhibition at 1 µM: 60%
c-Src kinase
  inhibition at 1 µM: 59%

## Cc1cc2c(F)c(Oc3cc(Nc4ccc(N5CCN(C)CC5)c(F)c4)ncn3)ccc2[nH]1 [Example 14]
Kato III
  GI50: > 500 nM
FGFR1 kinase
  inhibition at 1 µM: 97%
KDR kinase
  inhibition at 1 µM: 97%
RT112
  GI50: > 100 nM
Alk kinase
  inhibition at 1 µM: 53%
Tie2
  inhibition at 1 µM: 31%
KG1a
  GI50: > 100 nM
phospho-FGFR2
  EC50: > 100 nM
Ret kinase
  inhibition at 1 µM: 48%
AN3_CA
  GI50: 483 nM
Abl kinase
  inhibition at 1 µM: 32%
c-Src kinase
  inhibition at 1 µM: 35%

## Cc1cc2c(F)c(Oc3cc(Nc4ccc(N5CCN(C)CC5)cn4)ncn3)ccc2[nH]1 [Example 15]
Kato III
  GI50: 290 nM
FGFR1 kinase
  inhibition at 1 µM: 100%
KDR kinase
  inhibition at 1 µM: 97%
RT112
  GI50: > 100 nM
Alk kinase
  inhibition at 1 µM: 32%
Tie2
  inhibition at 1 µM: 82%
KG1a
  GI50: > 100 nM
phospho-FGFR2
  EC50: 36 nM
Ret kinase
  inhibition at 1 µM: 79%
AN3_CA
  GI50: 332 nM
Abl kinase
  inhibition at 1 µM: 84%
c-Src kinase
  inhibition at 1 µM: 78%

## COc1cc(CCc2cc(Nc3cc(Oc4ccc5[nH]c(C)cc5c4F)ncn3)n[nH]2)cc(OC)c1 [Example 22]
Kato III
  GI50: 229 nM
FGFR1 kinase
  inhibition at 1 µM: 98%
KDR kinase
  inhibition at 1 µM: 96%
RT112
  GI50: > 100 nM
Alk kinase
  inhibition at 1 µM: 15%
Tie2
  inhibition at 1 µM: 18%
KG1a
  GI50: > 100 nM
phospho-FGFR2
  EC50: > 100 nM
Ret kinase
  inhibition at 1 µM: 25%
AN3_CA
  GI50: > 500 nM
Abl kinase
  inhibition at 1 µM: 19%
c-Src kinase
  inhibition at 1 µM: 9%

## CCN1CCN(c2ccc(Nc3ncnc(Oc4ccc5[nH]c(C)cc5c4F)c3F)cc2)CC1 [Example 25]
Kato III
  GI50: > 500 nM
FGFR1 kinase
  inhibition at 1 µM: 96%
KDR kinase
  inhibition at 1 µM: 95%
RT112
  GI50: > 100 nM
Alk kinase
  inhibition at 1 µM: 69%
Tie2
  inhibition at 1 µM: 0%
KG1a
  GI50: > 100 nM
phospho-FGFR2
  EC50: > 100 nM
Ret kinase
  inhibition at 1 µM: -11%
AN3_CA
  GI50: > 500 nM
Abl kinase
  inhibition at 1 µM: 7%
c-Src kinase
  inhibition at 1 µM: 11%
